Measured values from patent US20230303497A1, “BENZYLAMINE OR BENZYL ALCOHOL DERIVATIVE AND USES THEREOF” (CHENGDU HYPERWAY PHARMACEUTICALS CO., LTD, priority 2020, published 2023).
Read-outs that look alike come from different tables or passages of the source.

Assays:
human NaV1.8 ion channel = human NaV1.8 ion channel (Homo sapiens (Human), UniProt Q9Y5Y9); experiment: Compound inhibition activity on human NaV1.8 ion channel in HEK293 cells (whole-cell patch clamp); type: cell-based; settings: 100 nm concentration, HEK293 cells, resting protocol; for inhibition at 0.1 µM: read-out: Inhibition ratio of compounds against Nav1.8 (Activity of inhibition)
Chain of human NaV1.8 ion channel (Q9Y5Y9 whole entry): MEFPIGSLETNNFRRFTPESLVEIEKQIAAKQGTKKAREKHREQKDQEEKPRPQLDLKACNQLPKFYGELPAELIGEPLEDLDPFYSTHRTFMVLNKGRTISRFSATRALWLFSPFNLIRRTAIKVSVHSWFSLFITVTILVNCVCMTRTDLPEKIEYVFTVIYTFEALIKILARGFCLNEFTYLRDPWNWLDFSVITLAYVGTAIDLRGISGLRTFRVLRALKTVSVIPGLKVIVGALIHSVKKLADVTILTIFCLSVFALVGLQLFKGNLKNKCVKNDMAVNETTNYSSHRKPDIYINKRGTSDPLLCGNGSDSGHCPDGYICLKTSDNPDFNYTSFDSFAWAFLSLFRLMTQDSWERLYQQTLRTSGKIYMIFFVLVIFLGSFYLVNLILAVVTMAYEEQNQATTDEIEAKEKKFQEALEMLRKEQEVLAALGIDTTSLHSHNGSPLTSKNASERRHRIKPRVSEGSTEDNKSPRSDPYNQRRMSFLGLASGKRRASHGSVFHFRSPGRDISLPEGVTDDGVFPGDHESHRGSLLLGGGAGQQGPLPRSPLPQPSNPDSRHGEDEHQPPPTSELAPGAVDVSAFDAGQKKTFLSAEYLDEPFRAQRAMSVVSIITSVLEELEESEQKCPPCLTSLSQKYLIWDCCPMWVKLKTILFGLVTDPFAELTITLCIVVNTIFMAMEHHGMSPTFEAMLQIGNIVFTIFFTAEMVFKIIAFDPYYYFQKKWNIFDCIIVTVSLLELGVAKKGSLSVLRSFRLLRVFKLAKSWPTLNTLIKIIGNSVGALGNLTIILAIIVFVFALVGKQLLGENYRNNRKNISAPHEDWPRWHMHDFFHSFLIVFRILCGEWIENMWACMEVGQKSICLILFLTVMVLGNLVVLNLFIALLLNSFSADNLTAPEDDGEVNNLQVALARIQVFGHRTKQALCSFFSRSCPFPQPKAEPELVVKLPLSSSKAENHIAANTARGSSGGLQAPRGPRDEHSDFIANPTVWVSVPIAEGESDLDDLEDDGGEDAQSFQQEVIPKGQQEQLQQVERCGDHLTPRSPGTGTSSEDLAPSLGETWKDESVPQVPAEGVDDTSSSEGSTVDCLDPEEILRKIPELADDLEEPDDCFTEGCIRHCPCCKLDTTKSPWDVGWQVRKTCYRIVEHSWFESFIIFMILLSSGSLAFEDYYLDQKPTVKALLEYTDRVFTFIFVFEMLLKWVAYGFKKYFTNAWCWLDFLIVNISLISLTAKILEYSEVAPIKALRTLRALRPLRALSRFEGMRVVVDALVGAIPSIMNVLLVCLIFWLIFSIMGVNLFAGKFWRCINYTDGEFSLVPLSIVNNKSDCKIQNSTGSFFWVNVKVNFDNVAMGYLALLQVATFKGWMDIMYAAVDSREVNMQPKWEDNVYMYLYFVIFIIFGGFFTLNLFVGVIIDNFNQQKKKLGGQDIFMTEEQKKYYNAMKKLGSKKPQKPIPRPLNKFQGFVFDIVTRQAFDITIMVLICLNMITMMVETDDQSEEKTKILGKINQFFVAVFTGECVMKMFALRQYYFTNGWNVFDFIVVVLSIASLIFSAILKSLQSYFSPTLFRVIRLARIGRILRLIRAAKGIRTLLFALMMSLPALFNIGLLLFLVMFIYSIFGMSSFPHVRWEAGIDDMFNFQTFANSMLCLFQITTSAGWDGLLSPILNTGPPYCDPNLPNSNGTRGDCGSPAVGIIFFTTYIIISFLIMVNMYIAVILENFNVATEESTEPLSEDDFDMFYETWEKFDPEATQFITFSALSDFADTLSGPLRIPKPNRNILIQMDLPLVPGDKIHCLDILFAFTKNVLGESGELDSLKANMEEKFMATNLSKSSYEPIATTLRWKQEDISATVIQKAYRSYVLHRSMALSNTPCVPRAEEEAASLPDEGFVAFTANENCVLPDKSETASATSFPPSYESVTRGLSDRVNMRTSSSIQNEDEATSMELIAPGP

[1] = In vivo pharmacokinetic testing of compounds in rats; settings: rat, male SD rats, single oral dose 100 mg/kg, plasma, VX-150 dosed as prodrug, active form analysed; for AUC: read-out: AUC; for Cmax: read-out: Cmax
Procedure: Test Case 4: In Vivo Pharmacokinetic Testing of Compounds in Rats
All SD rats in the test are male and are purchased from Shanghai Sippe-Bk Lab Animal Co., Ltd. Each compound is administered orally (100 mg/kg, 3 rats per group) at single dose to SD rats for pharmacokinetic study. The solutions are prepared on the same day of administration, e.g., the tested compound is suspended in 5% DMSO+95% saline, get vortexed for 2 min, and sonicated for 5 min to prepare a drug delivery system. The animals are fasted for 10-14 hours before oral administration, and resumed food 4 hours after administration. After oral administration by gavage in SD rats, pharmacokinetic samples are collected from jugular vein at the following time points: 0, 15 min, 30 min, 1 h, 2 h, 4 h, 6 h, 8 h and 24 h. Three whole blood samples are collected at each time point in a volume of about 0.2 mL and anticoagulated using sodium heparin. Blood samples are placed on ice immediately after collection and plasma is separated by centrifugation within 1 h (centrifugation conditions: 6800 rpm, 6 min, 2-8° C.). The collected plasma is stored in a −80° C. refrigerator prior to analysis.
In pharmacokinetic tests in rat, the control compound VX-150 is a prodrug (WO2015089361, compound 9), after administration, analysis is performed to test its active form (WO2014120808, compound 10). The aforementioned in vitro pharmacological tests are performed using the active ingredient (WO2014120808, compound 10).

NaV1.3 = NaV1.3 (Homo sapiens (Human), UniProt Q9NY46); experiment: Selectivity test for Nav ion channel subtypes: NaV1.3 (HEK293, patch clamp); type: cell-based; settings: 1 uM; HEK293 cells
Chain of NaV1.3 (Q9NY46 whole entry): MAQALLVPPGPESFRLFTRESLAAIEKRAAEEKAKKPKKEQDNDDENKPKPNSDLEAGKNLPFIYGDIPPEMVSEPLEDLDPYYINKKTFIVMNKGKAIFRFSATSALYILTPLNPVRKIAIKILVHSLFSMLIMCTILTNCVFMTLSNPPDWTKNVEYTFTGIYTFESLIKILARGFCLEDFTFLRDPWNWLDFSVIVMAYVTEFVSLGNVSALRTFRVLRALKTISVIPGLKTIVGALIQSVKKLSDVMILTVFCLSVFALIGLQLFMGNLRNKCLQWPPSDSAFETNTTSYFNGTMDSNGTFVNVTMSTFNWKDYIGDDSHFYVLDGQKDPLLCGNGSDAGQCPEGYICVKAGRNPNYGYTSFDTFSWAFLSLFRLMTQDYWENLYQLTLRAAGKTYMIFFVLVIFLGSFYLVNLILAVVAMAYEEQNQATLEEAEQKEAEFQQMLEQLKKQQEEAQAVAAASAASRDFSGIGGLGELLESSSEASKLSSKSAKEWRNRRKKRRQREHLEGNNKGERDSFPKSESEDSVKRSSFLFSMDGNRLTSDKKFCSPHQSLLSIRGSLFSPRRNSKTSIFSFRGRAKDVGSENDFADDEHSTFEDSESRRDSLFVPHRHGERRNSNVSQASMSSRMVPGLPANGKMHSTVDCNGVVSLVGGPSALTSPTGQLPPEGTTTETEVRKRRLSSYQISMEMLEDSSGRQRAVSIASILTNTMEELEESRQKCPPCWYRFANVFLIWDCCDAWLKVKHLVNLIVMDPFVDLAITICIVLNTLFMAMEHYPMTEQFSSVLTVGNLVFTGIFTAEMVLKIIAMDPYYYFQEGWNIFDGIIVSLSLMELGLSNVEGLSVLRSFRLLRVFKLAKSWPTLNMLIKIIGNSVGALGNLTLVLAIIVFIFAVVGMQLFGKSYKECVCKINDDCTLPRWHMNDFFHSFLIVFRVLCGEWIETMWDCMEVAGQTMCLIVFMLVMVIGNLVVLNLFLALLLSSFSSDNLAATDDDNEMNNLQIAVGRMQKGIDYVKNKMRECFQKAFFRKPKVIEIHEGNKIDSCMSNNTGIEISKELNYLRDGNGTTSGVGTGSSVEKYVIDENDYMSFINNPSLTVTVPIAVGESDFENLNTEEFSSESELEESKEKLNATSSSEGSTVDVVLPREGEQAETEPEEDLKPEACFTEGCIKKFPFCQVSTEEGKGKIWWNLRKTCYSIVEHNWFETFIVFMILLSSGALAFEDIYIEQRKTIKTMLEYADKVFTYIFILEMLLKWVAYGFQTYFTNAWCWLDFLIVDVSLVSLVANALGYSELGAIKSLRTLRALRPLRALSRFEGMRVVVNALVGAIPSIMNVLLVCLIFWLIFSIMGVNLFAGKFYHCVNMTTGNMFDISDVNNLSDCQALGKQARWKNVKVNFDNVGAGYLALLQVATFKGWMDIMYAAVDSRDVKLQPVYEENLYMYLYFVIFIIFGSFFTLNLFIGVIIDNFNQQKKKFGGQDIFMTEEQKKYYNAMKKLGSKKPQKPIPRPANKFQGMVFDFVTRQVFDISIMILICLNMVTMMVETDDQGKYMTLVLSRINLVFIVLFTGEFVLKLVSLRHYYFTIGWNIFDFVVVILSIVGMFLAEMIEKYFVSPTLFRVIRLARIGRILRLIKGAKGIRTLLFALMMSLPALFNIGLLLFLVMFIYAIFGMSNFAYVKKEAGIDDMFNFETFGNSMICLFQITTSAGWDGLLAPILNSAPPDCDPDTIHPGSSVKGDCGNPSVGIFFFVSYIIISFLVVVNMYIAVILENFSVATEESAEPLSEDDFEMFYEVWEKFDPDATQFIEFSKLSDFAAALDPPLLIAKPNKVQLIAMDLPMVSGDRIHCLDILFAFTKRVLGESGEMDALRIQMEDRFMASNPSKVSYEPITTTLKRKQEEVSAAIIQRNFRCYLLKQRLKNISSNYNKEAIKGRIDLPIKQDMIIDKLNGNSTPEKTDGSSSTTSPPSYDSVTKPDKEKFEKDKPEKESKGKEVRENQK
Procedure: (§1) Test Case 3: Compound Selectivity Test for Nav Ion Channel Subtypes
(§2) The aim of this test is to investigate effect of compounds on human Na ion channel cells expressed in steady-state (NaV1.1, NaV1.3, NaV1.4, NaV1.5, NaV1.6, NaV1.7). After Na ion currents is stabilized, the effect can be obtained by comparing the magnitude of Na channel currents before and after the application of the compounds.
(§3) The test compound is stored at a concentration of 9 mM in dimethyl sulfoxide (DMSO), and on the day of testing, dissolve in extracellular solution, then prepare to a screening concentration of 1 uM.
(§4) All experiments are performed at room temperature. Each cell itself is taken as the corresponding control.
(§5) At least one cell is tested per concentration.
(§6) HEK293 cells steadily expressing NaV1.1-, NaV1.3-, NaV1.4-, NaV1.5-, NaV1.6-ion channels; CHO cells expressing steadily NaV1.7 ion channel.
(§7) The intracellular fluid (mM) is: Aspartic acid, 140; MgCl2, 2; EGTA 11; HEPES, 10; pH 7.2 (CsOH titration). […] Electrodes are drawn with PC-10 (Narishige, Japan). Recording is performed with whole-cell diaphragm clamp.
(§8) Cells are clamped at −80 mV and then depolarized to −10 mV with a sustained 10 ms square wave to obtain Na ion channel currents (see the FIGURE). This process is repeated every 5 seconds. […] The strength of the block is calculated after the response is stabilized.

NaV1.6 = NaV1.6 (Homo sapiens (Human), UniProt Q9UQD0); experiment: Selectivity test for Nav ion channel subtypes: NaV1.6 (HEK293, patch clamp); type: cell-based; settings: 1 uM; HEK293 cells
Procedure: as §1, §2, §3, §4, §5, §6, §7, §8

NaV1.5 = NaV1.5 (Homo sapiens (Human), UniProt Q14524); experiment: Selectivity test for Nav ion channel subtypes: NaV1.5 (HEK293, patch clamp); type: cell-based; settings: 1 uM; HEK293 cells
Procedure: as §1, §2, §3, §4, §5, §6, §7, §8

NaV1.4 = NaV1.4 (Homo sapiens (Human), UniProt P35499); experiment: Selectivity test for Nav ion channel subtypes: NaV1.4 (HEK293, patch clamp); type: cell-based; settings: 1 uM; HEK293 cells
Procedure: as §1, §2, §3, §4, §5, §6, §7, §8

NaV1.1 = NaV1.1 (Homo sapiens (Human), UniProt P35498); experiment: Selectivity test for Nav ion channel subtypes: NaV1.1 (HEK293, patch clamp); type: cell-based; settings: 1 uM; HEK293 cells
Procedure: as §1, §2, §3, §4, §5, §6, §7, §8

NaV1.7 = NaV1.7 (Homo sapiens (Human), UniProt Q15858); experiment: Selectivity test for Nav ion channel subtypes: NaV1.7 (CHO cells, patch clamp); type: cell-based; settings: 1 uM
Procedure: as §1, §2, §3, §4, §5, §6, §7, §8

hERG ion channels = hERG ion channels (Homo sapiens (Human), UniProt Q12809); experiment: Inhibition activity test on hERG ion channels in HEK293 cells (cardiac safety, patch clamp)
Chain of hERG ion channels (Q12809 whole entry): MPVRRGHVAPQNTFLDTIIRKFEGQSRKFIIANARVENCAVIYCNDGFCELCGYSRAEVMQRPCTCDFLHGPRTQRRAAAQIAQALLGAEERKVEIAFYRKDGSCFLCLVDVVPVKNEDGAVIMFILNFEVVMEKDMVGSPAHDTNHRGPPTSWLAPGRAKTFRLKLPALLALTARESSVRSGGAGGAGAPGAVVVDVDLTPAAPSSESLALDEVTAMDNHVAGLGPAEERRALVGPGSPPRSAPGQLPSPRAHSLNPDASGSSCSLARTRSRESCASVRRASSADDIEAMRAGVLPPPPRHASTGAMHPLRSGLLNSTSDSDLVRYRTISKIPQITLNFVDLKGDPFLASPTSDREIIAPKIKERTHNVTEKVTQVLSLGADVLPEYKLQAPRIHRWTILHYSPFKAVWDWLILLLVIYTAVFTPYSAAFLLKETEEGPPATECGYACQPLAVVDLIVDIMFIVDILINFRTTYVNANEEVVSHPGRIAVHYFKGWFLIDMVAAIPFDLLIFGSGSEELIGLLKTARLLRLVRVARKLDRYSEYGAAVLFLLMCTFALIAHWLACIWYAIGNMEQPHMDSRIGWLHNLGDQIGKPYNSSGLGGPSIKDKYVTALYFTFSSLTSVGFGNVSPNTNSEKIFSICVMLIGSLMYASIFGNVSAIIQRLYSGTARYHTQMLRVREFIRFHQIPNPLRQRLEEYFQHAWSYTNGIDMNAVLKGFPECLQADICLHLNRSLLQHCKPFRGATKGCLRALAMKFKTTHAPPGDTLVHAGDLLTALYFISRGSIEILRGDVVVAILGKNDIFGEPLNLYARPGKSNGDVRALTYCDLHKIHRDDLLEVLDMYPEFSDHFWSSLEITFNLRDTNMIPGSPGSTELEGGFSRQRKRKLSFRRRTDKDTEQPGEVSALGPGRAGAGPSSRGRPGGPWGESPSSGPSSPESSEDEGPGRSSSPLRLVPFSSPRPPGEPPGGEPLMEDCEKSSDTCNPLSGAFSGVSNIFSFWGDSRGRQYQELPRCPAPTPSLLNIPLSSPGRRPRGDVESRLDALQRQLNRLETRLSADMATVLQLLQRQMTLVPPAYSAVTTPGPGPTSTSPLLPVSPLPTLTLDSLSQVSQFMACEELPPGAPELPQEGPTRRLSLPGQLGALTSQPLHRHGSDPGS
Procedure: This experiment is used as a cardiac safety test of compound.
The reagents are purchased from Sigma (St. Louis, MO) except NaOH and KOH for acid-base titration. Final concentrations of tested solutions are prepared on the testing day and dissolved in extracellular fluid. […] All the test solutions and the control solutions contain 0.3% DMSO. Intracellular fluid (mM) contains: K Aspartate, 130; MgCl2, 5; EGTA 5; HEPES, 10; Tris-ATP 4; pH 7.2 (KOH titration).
Cells: all experiments is performed at room temperature. Each cell itself is taken as the corresponding control.
Compounds are all perfused using a perfusion system that utilizes the gravity. At least two cells are tested per concentration. After current stabilization (or 5 minutes), the change in current magnitude before and after the use of the compound is compared to calculate the blocking effect of the compound.
The method of operation is the same as that of the test compound.
Electrophysiology: Transfer the Cells to the perfusion tank and perfuse with extracellular fluid. The intracellular fluid (mM) contains: K Aspartate, 130; MgCl2, 5; EGTA 5; HEPES, 10; Tris-ATP 4; pH 7.2 (KOH titration). The intracellular fluid is stored in small quantities in portions in a −80° C. refrigerator, and melt on the day of the experiment. Electrodes are drawn with PC-10 (Narishige, Japan). Recording is performed with whole-cell diaphragm clamp. Noise is filtered with one-fifth of the sampling frequency.
This process is repeated every 20 seconds. The hERG tail current is the pure hERG current. The maximum tail current triggered by the second square wave is detected, and when the current is stabilized, the test compound is perfused. The strength of the block is calculated when the response is stabilized.

`Cc1cc(F)ccc1Oc1cc(C(F)(F)F)ccc1C(=O)Nc1cnnc(OC[C@H](O)CO)c1` [Example 109] showed an inhibition at 0.1 µM (human NaV1.8 ion channel) of 20 to 50%.
`Cc1cc(F)ccc1Oc1cc(C(F)(F)F)ccc1C(=O)Nc1ccc(F)c(OCC(O)CN)c1` (stereo not drawn) [Example 110] gave an inhibition at 0.1 µM (human NaV1.8 ion channel) of 50 to 80%.
`Cc1cc(F)ccc1Oc1cc(C2CC2)c(C(F)(F)F)cc1C(=O)Nc1cnnc(OC[C@@H](O)CO)c1` [Example 111] gave an inhibition at 0.1 µM (human NaV1.8 ion channel) of 50 to 80%.
`Cc1cc(F)ccc1Oc1cc(C2CC2)c(C(F)(F)F)cc1C(=O)Nc1cnnc(OC[C@H](O)CO)c1` [Example 112] showed an inhibition at 0.1 µM (human NaV1.8 ion channel) of 20 to 50%, a half-life [1] of 6.3 h and an AUC [1] of 115 µg·h/mL. For the same molecule, the Cmax [1] was 8270 ng/mL.
For `Cc1cc(F)ccc1Oc1cc(C(F)(F)F)c(Cl)cc1C(=O)Nc1ccnc(OC[C@@H](O)CO)c1` [Example 113, (S)-5-chloro-N-(2-(2,3-dihydroxypropoxy)pyridin-4-yl)-2-(4-fluoro-2-methylphenoxy)-4-(trifluoromethyl) benzamide], the inhibition at 0.1 µM (human NaV1.8 ion channel) was > 80%.
For `Cc1cc(F)ccc1Oc1cc(C(F)(F)F)c(Cl)cc1C(=O)Nc1ccnc(OC[C@H](O)CO)c1` [Example 114, (R)-5-chloro-N-(2-(2,3-dihydroxypropoxy)pyridin-4-yl)-2-(4-fluoro-2-methylphenoxy)-4-(trifluoromethyl) benzamide], the “Inhibition ratio on Nav1.3” value (NaV1.3) was 4.4%, the inhibition at 0.1 µM (human NaV1.8 ion channel) was > 80% and the “Inhibition ratio on Nav1.6” value (NaV1.6) was 8.3%. For the same molecule, the “Inhibition ratio on Nav1.5” value (NaV1.5) was 5.9%, the “Inhibition ratio on Nav1.4” value (NaV1.4) was 2.7% and the “Inhibition ratio on Nav1.1” value (NaV1.1) was 4.8%. For the same molecule, the “Inhibition ratio on Nav1.7” value (NaV1.7) was <1%, the IC50 (hERG ion channels) was 22.3 µM and the half-life [1] was 11.7 h. It also gave an AUC [1] of 154 µg·h/mL and a Cmax [1] of 7640 ng/mL.
`Cc1cc(F)ccc1Oc1cc(C(F)(F)F)c(Cl)cc1C(=O)Nc1cnnc(OC[C@@H](O)CO)c1` [Example 115] showed an inhibition at 0.1 µM (human NaV1.8 ion channel) of 50 to 80%.
With `Cc1cc(F)ccc1Oc1cc(C(F)(F)F)c(Cl)cc1C(=O)Nc1cnnc(OC[C@H](O)CO)c1` [Example 116] the “Inhibition ratio on Nav1.3” value (NaV1.3) was 3.7%, the inhibition at 0.1 µM (human NaV1.8 ion channel) was 50 to 80% and the “Inhibition ratio on Nav1.6” value (NaV1.6) was 2.6%. The “Inhibition ratio on Nav1.5” value (NaV1.5) was <1%, the “Inhibition ratio on Nav1.4” value (NaV1.4) was <1% and the “Inhibition ratio on Nav1.1” value (NaV1.1) was 1.2%. For the same molecule, the “Inhibition ratio on Nav1.7” value (NaV1.7) was <1%, the IC50 (hERG ion channels; human, pH 7.4) was 15.6 µM and the half-life [1] was 8.7 h. The AUC [1] was 42.5 µg·h/mL and the Cmax [1] was 2570 ng/mL.
Molecule `Cc1cc(F)ccc1Oc1cc(C(F)(F)F)c(Cl)cc1C(=O)Nc1ccc(F)c(OC[C@@H](O)CNC(=O)CO)c1` [Example 118] has an inhibition at 0.1 µM (human NaV1.8 ion channel) of 50 to 80%.
For `COc1cc(F)ccc1Oc1cc(C(F)(F)F)c(Cl)cc1C(=O)Nc1ccnc(OC[C@H](O)CO)c1` [Example 120], the inhibition at 0.1 µM (human NaV1.8 ion channel) was > 80%.
For `COc1cc(OC(F)(F)F)ccc1Oc1cc(C(F)(F)F)c(Cl)cc1C(=O)Nc1ccnc(OC[C@H](O)CO)c1` [Example 121], the inhibition at 0.1 µM (human NaV1.8 ion channel) was > 80%.
Molecule `Cc1cc(F)ccc1Oc1ccc(C(F)(F)F)cc1C(=O)Nc1ccnc(OC[C@H](O)CO)c1` [Example 122] has an inhibition at 0.1 µM (human NaV1.8 ion channel) of 50 to 80%.
In the case of “N-(3-(1-amino-3-fluoropropyl)-4-fluorophenyl)-4-cyclopropyl-2-(4-fluoro-2-methyl phenoxy)-5-(trifluoromethyl) benzamide [Example 21]”, the “Inhibition ratio of Nav1.8 (Activity of inhibition)” value (human NaV1.8 ion channel) is reported as “B (80 > B >= 50)”.
